Source: patent publication EP1075186B1, “METHOD OF HSV PROPHYLAXIS” (The Children's Hospital Research Foundation, priority 1998, dated 1999)

Key:
[1] = system: VZV; experiment: In vitro assay with VZV on HFF cell monolayers; format: cell-based; conditions: Example 2, Table 17, 0.1 mg/ml, footnote: this toxicity observation is questionable
Procedure: VZV was grown to a CPE level […] of 3-4 + on HFF cell monolayers. The VZV was scraped from the flask, centrifuged and the cell pellet was resuspended in 10 ml of complete medium. 100 to 200 µl of the VZV cell associated inoculum was inoculated onto confluent HFF cell monolayers by absorption for 60 minutes at 37°C. After absorption of the virus, the inoculum was aspirated from the cell monolayers.
The VZV-infected monolayers were rehydrated with medium containing the appropriate concentrations of compounds to be tested. All monolayers were incubated at 37°C. Development of VZV cytopathology was monitored daily for 7 days by inverted light microscopy. Titers were calculated by multiple regression analysis.

[2] = system: human foreskin fibroblast (HFF) cell monolayers; experiment: Toxicity effects controls (sham-inoculated compound treated HFF monolayers); format: cell-based
Text: Sham-incolulated, non-treated HFF cell monolayers were included along with the drug-treated monolayers as "cell monolayer controls". • 1. HSV-1 inoculated, non-compound treated HFF monolayers were included as "positive controls"; and • 2.
In the tables, the symbols have the meaning indicated: + = toxic; - = no toxicity; +/- = mild toxicity; ND = not done; T = toxicity effects interfered with CPE rating; CPE = cytopathic effect.

[3] = Experiment 5, Table 12, 48 Hours Post Incubation, 0.001 mg/ml
[4] = Experiment 5, Table 12, 48 Hours Post Incubation, 0.01 mg/ml
[5] = Experiment 5, Table 12, 48 Hours Post Incubation, 1 mg/ml

SMILES: CC1=CC(C)=[N+]2CC[N+]3=C(C)C=C(C)[O][Co-3]23([NH2])([NH3+])[O]1 [Compound 23, reference compound]
- VIRUCIDAL EFFICACY 7 Days Post Inoculation Efficacy [1]: T?
- TOXICITY EFFECTS CONTROLS ([2]; Experiment 2, Table 4, 0.001 mg/ml, 24 h PI): -
- TOXICITY EFFECTS CONTROLS ([2]; Experiment 2, Table 4, 0.001 mg/ml, 48 h PI): -
- TOXICITY EFFECTS CONTROLS ([2]; Experiment 2, Table 4, 0.01 mg/ml, 24 h PI): -
- TOXICITY EFFECTS CONTROLS ([2]; Experiment 2, Table 4, 0.01 mg/ml, 48 h PI): -
- TOXICITY EFFECTS CONTROLS ([2]; Experiment 2, Table 4, 0.1 mg/ml, 24 h PI): -
- TOXICITY EFFECTS CONTROLS ([2]; Experiment 2, Table 4, 0.1 mg/ml, 48 h PI): -
- TOXICITY EFFECTS CONTROLS ([2]; Experiment 2, Table 4, 1 mg/ml, 24 h PI): +/-
- TOXICITY EFFECTS CONTROLS ([2]; Experiment 2, Table 4, 1 mg/ml, 48 h PI): +/-
- TOXICITY EFFECTS CONTROLS [2, 3]: -
- TOXICITY EFFECTS CONTROLS [2, 4]: -
- TOXICITY EFFECTS CONTROLS ([2]; Experiment 5, Table 12, 48 Hours Post Incubation, 0.1 mg/ml): -
- TOXICITY EFFECTS CONTROLS ([2]; Experiment 5, Table 12, 48 Hours Post Incubation, 0.5 mg/ml): -
- TOXICITY EFFECTS CONTROLS [2, 5]: -
- TOXICITY EFFECTS CONTROLS ([2]; Experiment 5, Table 12, 48 Hours Post Incubation, 2 mg/ml): +/-
- TOXICITY EFFECTS CONTROLS ([2]; Experiment 5, Table 12, 48 Hours Post Incubation, 5 mg/ml): +/-

SMILES: CC1=C(Cl)C(C)=[N+]2CC[N+]3=C(C)C(Cl)=C(C)[O][Co-3]23([n+]2cc[nH]c2)([n+]2cc[nH]c2)[O]1 [Compound 93]
- VIRUCIDAL EFFICACY 7 Days Post Inoculation Efficacy [1]: T?
- TOXICITY EFFECTS CONTROLS ([2]; Experiment 3, Table 7, 0.001 mg/ml, 24 hrs post incubation): -
- TOXICITY EFFECTS CONTROLS ([2]; Experiment 3, Table 7, 0.001 mg/ml, 48 hrs post incubation): -
- TOXICITY EFFECTS CONTROLS ([2]; Experiment 3, Table 7, 0.01 mg/ml, 24 hrs post incubation): -
- TOXICITY EFFECTS CONTROLS ([2]; Experiment 3, Table 7, 0.01 mg/ml, 48 hrs post incubation): -
- TOXICITY EFFECTS CONTROLS ([2]; Experiment 3, Table 7, 0.1 mg/ml, 24 hrs post incubation): -
- TOXICITY EFFECTS CONTROLS ([2]; Experiment 3, Table 7, 0.1 mg/ml, 48 hrs post incubation): +/-
- TOXICITY EFFECTS CONTROLS ([2]; Experiment 3, Table 7, 0.5 mg/ml, 24 hrs post incubation): -
- TOXICITY EFFECTS CONTROLS ([2]; Experiment 3, Table 7, 0.5 mg/ml, 48 hrs post incubation): -
- TOXICITY EFFECTS CONTROLS ([2]; Experiment 3, Table 7, 1 mg/ml, 24 hrs post incubation): -
- TOXICITY EFFECTS CONTROLS ([2]; Experiment 3, Table 7, 1 mg/ml, 48 hrs post incubation): -
- TOXICITY EFFECTS CONTROLS ([2]; Experiment 3, Table 7, 5 mg/ml, 24 hrs post incubation): +/-
- TOXICITY EFFECTS CONTROLS ([2]; Experiment 3, Table 7, 5 mg/ml, 48 hrs post incubation): +/-
- TOXICITY EFFECTS CONTROLS [2, 3]: -
- TOXICITY EFFECTS CONTROLS [2, 4]: -
- TOXICITY EFFECTS CONTROLS [2, 5]: +/-
- toxicity ([2]; Experiment 5, cell rounding, detaching from the monolayer, increased granularity, loss of normal morphology): more pronounced in the 0.5 and the 0.1 mg/ml concentrations
